We go through six compounds from ChEMBL document CHEMBL5223115, “A guanidinium group is an effective mimic of the tertiary carbocation formed by isopentenyl diphosphate isomerase” (Bioorg Med Chem Lett, 2022).

Molecules are shown by their SMILES.

Assay [1] deals with T1, Isopentenyl-diphosphate Delta-isomerase (Escherichia coli (strain K12), UniProt Q46822).
T1 sequence (Q46822 whole entry): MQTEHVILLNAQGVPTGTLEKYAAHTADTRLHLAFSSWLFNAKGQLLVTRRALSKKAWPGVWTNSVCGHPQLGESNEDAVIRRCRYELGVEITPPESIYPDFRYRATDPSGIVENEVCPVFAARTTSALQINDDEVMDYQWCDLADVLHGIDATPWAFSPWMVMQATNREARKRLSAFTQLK
The experiment in a line: Inhibition of Escherichia coli IPP isomerase.

For assay [2], the target named is T1, Isopentenyl-diphosphate Delta-isomerase. Nature of the assay: Binding affinity to Escherichia coli IPP isomerase assessed as inhibition constant.
The nature of assay [3]: Binding affinity to IPP isomerase (unknown origin) assessed as dissociation constant. Further details: species or system Homo sapiens.
The target of assay [4] is T1, Isopentenyl-diphosphate Delta-isomerase. Nature of the assay: Competitive inhibition of Escherichia coli IPP isomerase assessed as inhibition constant by Lineweaver-burk plot analysis.

By IC50 is commonly meant the concentration needed to halve the response being measured. Read a low IC50 as inhibition by little substance. For the compound `N=C(N)NCCC(=O)NO`, the IC50 in assay [1] amounted to 670 µM.

One may read the Ki as a measure of affinity in units of concentration, obtained from inhibition or displacement. One may read the Kd as the concentration at which binding is half-saturated. As for `NC(N)=NCP(=O)(O)CP(=O)(O)O`, the Ki in assay [2] came out at 0.12 µM. The dissociation constant (Kd) in assay [3] was 1.2 µM.

Consider `CS(=O)(=O)NC(=O)CCNC(=N)N`, for which, in assay [1], the IC50 was found to be 1200 µM.

Consider `N=C(N)NCCP(=O)(O)CP(=O)(O)O`, for which the Ki in assay [2] and in assay [4] was 0.129 µM in each case. The compound further had an IC50 in assay [1] of 0.7 µM.

Compound `CN(C)CCCP(=O)(O)CP(=O)(O)O` came in with a 50% inhibitory concentration (IC50) in assay [1] of 33 µM.

`CN(C)CCCC(=O)NS(C)(=O)=O` returned an IC50 in assay [1] of over 5000 µM.
